Test results: US20220000852A1, “5-HT2A SEROTONIN RECEPTOR INVERSE AGONISTS OR ANTAGONISTS FOR USE IN REDUCING AMYLOID-BETA PEPTIDES AND ACCUMULATION OF AMYLOID PLAQUES” (ACADIA Pharmaceuticals Inc., priority 2016, published 2022)

How the values were obtained:
[1] = system: ISF Aβ; assay: ISF Aβ levels by hippocampal microdialysis in wild-type mice; format: in vivo; conditions: 2.5 to 3 months, Example 3, pimavanserin 1 mg/kg, MDL 100,907 3 mg/kg
Experimental: Wild-type or APP/PS1+/− transgenic mice at the indicated ages (equal male and female) were implanted with unilateral hippocampal microdialysis probes at stereotaxic coordinates (bregma—3.1 mm, 2.5m lateral to midline, and 1.2 mm below dura at a 12° angle) as described (Cirrito et al. 2003; 2011). These probes contain a 38 kDa MWCO semi-permeable membrane and sample Aβ specifically from within the brain ISF. ISF Aβ was measured every 60-90 minutes for up to 72 hours after probe was inserted into the brain. Throughout each study mice was housed in RaTurn caging systems to provide freedom of movement and ad lib food and water while attached the microdialysis equipment. […] After recovery, each mouse had baseline ISF Aβ levels sampled every hour over a 6 hour period followed by administration of either vehicle (saline, pH 6.0 or M DL 100,907. Following drug administration, ISF Aβ was measured every 60-90 minutes for an additional 48 hours. At the end of each experiment ISF Aβ40 was immediately measured by sandwich ELISA. Animals were sacrificed, brains removed, then processed for histological verification of probe placement. FIG. 1A-FIG. 1D discloses the results of Example 1 (MDL 100,907 (M100), a selective 5-HT2A Serotonin Receptor Inverse Agonist on ISF levels of Aβ40 and Aβ42 in wild-type, and in young and aged APP/PS1+/− Transgenic Mice). […]

[2] = system: ISF Aβ; assay: ISF Aβ levels by hippocampal microdialysis in 5-HT2A−/− mice; format: in vivo; conditions: 5-HT2A KO (5-HT2A−/−) mice; Example 3; pimavanserin 1 mg/kg, MDL 100,907 3 mg/kg
Experimental: Following drug administration, ISF Aβ was measured every 3 hours for an additional 24 hours.

[3] = system: ISF Aβ; assay: ISF Aβ levels by hippocampal microdialysis and sandwich ELISA in APP/PS1+/− transgenic mice; format: in vivo; conditions: for ISF levels of Aβ: Example 1
Experimental: Wild-type or APP/PS1+/− transgenic mice at the indicated ages (equal male and female) were implanted with unilateral hippocampal microdialysis probes at stereotaxic coordinates (bregma—3.1 mm, 2.5m lateral to midline, and 1.2 mm below dura at a 12° angle) as described (Cirrito et al. 2003; 2011). These probes contain a 38 kDa MWCO semi-permeable membrane and sample Aβ specifically from within the brain ISF. ISF Aβ was measured every 60-90 minutes for up to 72 hours after probe was inserted into the brain. Throughout each study mice was housed in RaTurn caging systems to provide freedom of movement and ad lib food and water while attached the microdialysis equipment. After probe insertion, animals were allowed to recover for 6 hours in order for the brain to recover and the blood-brain barrier to reform. Microdialysis probe insertion was similar to the procedure described by Cirrito et al. 2003 and 2011. From hours 6-60 after microdialysis probe insertion, ISF Aβ levels were relatively constant which provides the ideal experimental window. After recovery, each mouse had baseline ISF Aβ levels sampled every hour over a 6 hour period followed by administration of either vehicle (saline, pH 6.0 or M DL 100,907. Following drug administration, ISF Aβ was measured every 60-90 minutes for an additional 48 hours. At the end of each experiment ISF Aβ40 was immediately measured by sandwich ELISA. Animals were sacrificed, brains removed, then processed for histological verification of probe placement. FIG. 1A-FIG. 1D discloses the results of Example 1 (MDL 100,907 (M100), a selective 5-HT2A Serotonin Receptor Inverse Agonist on ISF levels of Aβ40 and Aβ42 in wild-type, and in young and aged APP/PS1+/− Transgenic Mice). […] APP/PS1+/− transgenic mice at the indicated ages (equal male and female) were implanted with unilateral hippocampal microdialysis probes at stereotaxic coordinates (bregma—3.1 mm, 2.5m lateral to midline, and 1.2 mm below dura at a 12° angle) as described (Cirrito et al. 2003 and 2011) and ISF Aβ levels measured as described in Example 1. […]

[4] = system: beta amyloid; conditions: cited from earlier work; for beta amyloid levels and Plaque Burden: Mouse Model of AD
[5] = system: amyloid plaque; assay: Histological staining of hippocampus for amyloid plaque load after chronic treatment of APP/PS1+/− mice; format: in vivo
From the text: (§1) Incisions were closed by suture or staple to insure the pumps remained in place. Every 5 weeks pumps were removed and new full pumps implanted in the same manner at a different location on the back to provide continuous drug delivery over the 4 month period. In parallel, age and gender matched cohorts of APP/PS1+/− transgenic mice were sacrificed so that amyloid plaque and Aβ levels at the start of treatment could be compared to mice at the end of treatment. […] At the end of the 4 month treatment period, mice were sacrificed, brains removed, and divided into hemispheres. One hemisphere per mouse was processed for guanidine extraction and biochemical analysis by ELISA of Aβ40 and Aβ42 levels in hippocampus as described in Cirrito et al., 2011, with the 5 Molar Guanidine extracts representing the insoluble fractions of Aβ40 and Aβ42. The insoluble fraction is believed to represent the harmful amyloid plaque deposits that are characteristic of Alzheimer's disease. The other hemisphere was used to perform histological staining and analysis of amyloid plaque growth. Start indicates the age and gender matched cohorts sacrificed at the start of the study. Guan indicates 5 Molar Gaunidine. FIG. 4A) 5M Gaunidine fraction of Aβ40 and Aβ42, all genders. FIG. 4B) 5M Guanidine fraction, male and female. […]

[6] = system: Aβ40 and Aβ42; assay: Aβ40 and Aβ42 in 5M guanidine hippocampal extracts (ELISA) after chronic treatment of APP/PS1+/− mice; format: in vivo
From the text: Incisions were closed by suture or staple to insure the pumps remained in place. Every 5 weeks pumps were removed and new full pumps implanted in the same manner at a different location on the back to provide continuous drug delivery over the 4 month period. In parallel, age and gender matched cohorts of APP/PS1+/− transgenic mice were sacrificed so that amyloid plaque and Aβ levels at the start of treatment could be compared to mice at the end of treatment. […] At the end of the 4 month treatment period, mice were sacrificed, brains removed, and divided into hemispheres. One hemisphere per mouse was processed for guanidine extraction and biochemical analysis by ELISA of Aβ40 and Aβ42 levels in hippocampus as described in Cirrito et al., 2011, with the 5 Molar Guanidine extracts representing the insoluble fractions of Aβ40 and Aβ42. The insoluble fraction is believed to represent the harmful amyloid plaque deposits that are characteristic of Alzheimer's disease. The other hemisphere was used to perform histological staining and analysis of amyloid plaque growth. Start indicates the age and gender matched cohorts sacrificed at the start of the study. Guan indicates 5 Molar Gaunidine. FIG. 4A) 5M Gaunidine fraction of Aβ40 and Aβ42, all genders. FIG. 4B) 5M Guanidine fraction, male and female.
Male and Female APP/PS1+/− transgenic mice, age 6 months, were implanted with Alzet osmotic minipumps and treated as described in Example 4. At the end of the 4 month treatment period, mice were sacrificed, brains removed, and divided into hemispheres. In parallel, age and gender matched cohorts of APP/PS1+/− transgenic mice were sacrificed so that amyloid plaque and Aβ levels at the start of treatment could be compared to mice at the end of treatment. Start indicates the age and gender matched cohorts sacrificed at the start of the study. Guan indicates 5 Molar Gaunidine. FIG. 6A) 5M Gaunidine fraction of Aβ40 and Aβ42, all genders. FIG. 6B) F) 5M Guanidine fraction of Aβ40 and Aβ42, male and female. […] Example 7.

[7] = system: Aβ40 and Aβ42; assay: Aβ40 and Aβ42 in CSF (ELISA) after chronic treatment of APP/PS1+/− mice; format: in vivo; conditions: 6 month old APP/PS1 mice treated for 4 months; Example 8
From the text: as §1, with “disease.” for “disease. The other hemisphere was used to perform histological staining and analysis of amyloid plaque growth. Start indicates the age and gender matched cohorts sacrificed at the start of the study. Guan indicates 5 Molar Gaunidine. FIG. 4A) 5M Gaunidine fraction of Aβ40 and Aβ42, all genders. FIG. 4B) 5M Guanidine fraction, male and female.”
Male and Female APP/PS1+/− transgenic mice, age 6 months, were implanted with Alzet osmotic minipumps and treated as described in Example 4. At the end of the 4 month treatment period, mice were sacrificed, CSF removed using the method of DeMattos et al., 2002 (see page 230, Materials and Methods), and Aβ40 and Aβ42 levels analyzed by ELISA. […]

With `COc1cccc([C@H](O)C2CCN(CCc3ccc(F)cc3)CC2)c1OC` [M100,907, (R)-(+)-α-(2,3-Dimethoxyphenyl)-1-[2-(4-fluorophenyl)ethyl]-4-piperinemethanol] the “Brain ISF Aβ levels” value [1] was “Normalize Brain ISF Aβ Levels”, the “Aβ-lowering effect on ISF Aβ” value [2] was “abolished” and the “ISF levels of Aβ” value ([3]; old (12 month old, fully formed amyloid plaques) APP/PS1 mice) was “robustly lowered levels of Aβ in a dose dependent manner”. The “ISF levels of Aβ” value ([3]; young (3 month old, pre-plaque) APP/PS1 mice) was “robustly lowered levels of Aβ in a dose dependent manner”.

In the case of `NCCc1c[nH]c2ccc(O)cc12` [serotonin], the “ISF Aβ40 and Aβ42 levels” value ([4]; direct infusion into the hippocampus) is listed as “reduced ISF Aβ40 and Aβ42 levels”.

In the case of `CN(C)CC(c1ccc(O)cc1)C1(O)CCCCC1` (centres unmarked) [desvenlafaxine], the “beta amyloid levels and Plaque Burden” value [4] is given as “lower beta amyloid levels and Plaque Burden”.

With `CC(C)COc1ccc(CNC(=O)N(Cc2ccc(F)cc2)C2CCN(C)CC2)cc1.O=C(O)C(O)C(O)C(=O)O` [pimavanserin, N-(1-methylpiperidin-4-yl)-N-(4-fluorophenylmethyl)-N′-(4-(2-methylpropyloxy)phenylmethyl)carbamide] the “Brain ISF Aβ levels” value [1] was “Normalize Brain ISF Aβ Levels”, the “ISF Aβ” value ([3]; APP/PS1 mice, single bolus doses or continuous infusion, Example 2) was “robustly lowered ISF Aβ in APP/PS1 mice in a dose dependent manner” and the “amyloid plaque in hippocampus (histological staining), compared to vehicle treated mice” value ([5]; treatment from age 4.5 months for 4 months, Example 5) was “highly significant decreases of amyloid plaque”. For the same molecule, the “amyloid plaque in hippocampus (histological staining), compared to vehicle treated mice” value ([5]; treatment from age 6 months for 4 months, Example 7) was “highly significant decreases of amyloid plaque”, the “Aβ40 (guanidine fraction) in male mice, treated group (age 10 months) compared to start group (age 6 months)” value ([6]; male mice, Example 6B) was “reduction in Aβ40” and the “levels of the guanidine fraction of Aβ40 and Aβ42 in hippocampus, compared to vehicle treated mice” value ([6]; treatment from age 4.5 months for 4 months, osmotic minipump 3 mg/kg/day, Example 4) was “highly significant reduction”. For the same molecule, the “levels of Aβ40 and Aβ42 (guanidine fraction), treated group at end compared to 'Start' group” value ([6]; treatment from age 4.5 months for 4 months, Example 4) was “not a significant difference”, the “levels of the guanidine fraction of Aβ40 and Aβ42 in hippocampus, compared to vehicle treated mice” value ([6]; treatment from age 6 months for 4 months, osmotic minipump, Example 6) was “highly significant reduction” and the “levels of Aβ40 and Aβ42 (guanidine fraction), treated group at end compared to 'Start' group” value ([6]; treatment from age 6 months for 4 months, Example 6) was “not a significant difference”. The “Aβ in CSF” value [7] was “significantly lowered Aβ”.

For `CNCCC(Oc1ccc(C(F)(F)F)cc1)c1ccccc1` (centres unmarked) [fluoxetine], the “beta amyloid levels and Plaque Burden” value [4] is given as “lower beta amyloid levels and Plaque Burden”.
